Laboratory results published in the NIST ThermoML archive (doi:10.1016/j.tca.2015.04.027).

Experiments:
[1] = xn = mol fraction of the nth substance listed; details: 87 kPa, Liquid, Vibrating tube method
[2] = 87 kPa, Liquid, Vibrating tube method

CCOS(=O)(=O)[O-].CCn1cc[n+](C)c1 [1-ethyl-3-methylimidazolium ethyl sulfate] + OC(CCl)CCl
[1], x2 = 0
Details | mass density [kg/m3]
298.15 K | 1236.42
303.15 K | 1233.09
308.15 K | 1229.72
313.15 K | 1226.36
318.15 K | 1223

C=CCO [2-propenol] + OC(CCl)CCl
[1], x2 = 0
Details | mass density [kg/m3]
298.15 K | 850.4
303.15 K | 846.02
308.15 K | 841.59
313.15 K | 837.13
318.15 K | 832.63

OC(CCl)CCl [1,3-dichloro-2-propanol]
[2]
Details | mass density [kg/m3]
298.15 K | 1356.46
303.15 K | 1350.55
308.15 K | 1344.61
313.15 K | 1338.56
318.15 K | 1332.47

C=CCO [2-propenol]
[2]
Details | mass density [kg/m3]
298.15 K | 850.4
303.15 K | 846.02
308.15 K | 841.59
313.15 K | 837.13
318.15 K | 832.63

OC(CCl)CCl [1,3-dichloro-2-propanol] + C=CCO
mass density [kg/m3], [1]
Details | 298.15 K | 303.15 K | 308.15 K | 313.15 K | 318.15 K
x1 = 0.0927 | 914.27 | 909.73 | 905.11 | 900.45 | 895.75
x1 = 0.1927 | 978.2 | 973.46 | 968.64 | 963.78 | 958.88
x1 = 0.2704 | 1024.81 | 1019.93 | 1014.97 | 1009.97 | 1004.93
x1 = 0.3548 | 1072.33 | 1067.35 | 1062.2 | 1057.06 | 1051.87
x1 = 0.4555 | 1125.39 | 1120.22 | 1114.94 | 1109.64 | 1104.29
x1 = 0.4973 | 1146.3 | 1141.05 | 1135.75 | 1130.35 | 1124.95
x1 = 0.6062 | 1198.1 | 1192.65 | 1187.2 | 1181.65 | 1176.1
x1 = 0.7166 | 1246.88 | 1241.35 | 1235.7 | 1230.01 | 1224.28
x1 = 0.8004 | 1281.46 | 1275.78 | 1270 | 1264.19 | 1258.35
x1 = 0.8893 | 1316.06 | 1310.26 | 1304.41 | 1298.46 | 1292.49
x1 = 0.9452 | 1336.81 | 1330.96 | 1325.07 | 1319.07 | 1313.05
x1 = 1 | 1356.46 | 1350.55 | 1344.61 | 1338.56 | 1332.47

CCOS(=O)(=O)[O-].CCn1cc[n+](C)c1 [1-ethyl-3-methylimidazolium ethyl sulfate] + C=CCO
[1], x2 = 0
Details | mass density [kg/m3]
298.15 K | 1236.42
303.15 K | 1233.09
308.15 K | 1229.72
313.15 K | 1226.36
318.15 K | 1223

C=CCO [2-propenol] + CCOS(=O)(=O)[O-].CCn1cc[n+](C)c1
mass density [kg/m3], [1]
Details | 298.15 K | 303.15 K | 308.15 K | 313.15 K | 318.15 K
x1 = 0.0988 | 1223.65 | 1220.28 | 1216.87 | 1213.47 | 1210.09
x1 = 0.1811 | 1211.14 | 1207.72 | 1204.27 | 1200.85 | 1197.44
x1 = 0.2833 | 1193.07 | 1189.54 | 1186.02 | 1182.52 | 1179.15
x1 = 0.4107 | 1165.72 | 1162.19 | 1158.64 | 1155.11 | 1151.59
x1 = 0.4939 | 1143.57 | 1140.1 | 1136.5 | 1133 | 1129.55
x1 = 0.5909 | 1112.3 | 1109.47 | 1105.88 | 1102.21 | 1098.55
x1 = 0.7086 | 1064.08 | 1061.4 | 1058 | 1054.02 | 1049.98
x1 = 0.8066 | 1012 | 1009.5 | 1005.8 | 1001.87 | 997.66
x1 = 0.9057 | 942.5 | 939.58 | 935.46 | 931.33 | 927.19
x1 = 0.9835 | 869.29 | 865.2 | 860.9 | 856.62 | 852.28
x1 = 1 | 850.4 | 846.02 | 841.59 | 837.13 | 832.63

OC(CCl)CCl [1,3-dichloro-2-propanol] + CCOS(=O)(=O)[O-].CCn1cc[n+](C)c1
mass density [kg/m3], [1]
Details | 298.15 K | 303.15 K | 308.15 K | 313.15 K | 318.15 K
x1 = 0.0638 | 1239 | 1235.7 | 1232.4 | 1229 | 1225.55
x1 = 0.1199 | 1241.65 | 1238.3 | 1234.9 | 1231.6 | 1228.1
x1 = 0.2073 | 1246.7 | 1243.39 | 1239.87 | 1236.36 | 1232.86
x1 = 0.2973 | 1252.5 | 1249.05 | 1245.5 | 1241.9 | 1238.2
x1 = 0.3964 | 1259.8 | 1256.2 | 1252.5 | 1248.7 | 1245.1
x1 = 0.505 | 1269.3 | 1265.55 | 1261.5 | 1257.6 | 1253.9
x1 = 0.6616 | 1286.79 | 1282.36 | 1278.15 | 1274 | 1270
x1 = 0.7527 | 1300 | 1295.49 | 1291.17 | 1286.8 | 1282.3
x1 = 0.8236 | 1313 | 1308.44 | 1304 | 1299.5 | 1294.6
x1 = 0.9012 | 1329.59 | 1324.72 | 1319.69 | 1314.64 | 1309.58
x1 = 0.9645 | 1346 | 1340.45 | 1335.3 | 1329.4 | 1323.7
x1 = 1 | 1356.46 | 1350.55 | 1344.61 | 1338.56 | 1332.47

CCOS(=O)(=O)[O-].CCn1cc[n+](C)c1 [1-ethyl-3-methylimidazolium ethyl sulfate]
[2]
Details | mass density [kg/m3]
298.15 K | 1236.42
303.15 K | 1233.09
308.15 K | 1229.72
313.15 K | 1226.36
318.15 K | 1223
